According to patent publication US20050107400A1, “Use of pyrazolopyridines as therapeutic compounds” (priority 2001, published 2005):

test system: HSV-1; test: HSV-1 replication in infected Vero 76 cells, DNA hybridization capture assay; format: cell-based, herpes simplex virus 1; details: Human alphaherpesvirus 1, Vero 76
Protocol: a) Tissue Culture and HSV Infection.
Vero 76 cells were maintained in MEM with Earle's salts, L-glutamine, 8% FBS (Hyclone, A-1111-L) and 100 units/mL Penicillin-100 μg/mL Streptomycin. For assay conditions, FBS was reduced to 2%. Cells are seeded into 96-well tissue culture plates at a density of 5×10^4 cells/well after being incubated for 45 min at 37° C. in the presence of HSV-1 or HSV-2 (MOI=0.001). Test compounds are added to the wells and the plates are incubated at 37° C. for 40-48 hours. Cell lysates are prepared as follows: media was removed and replaced with 150 μL/well 0.2 N NaOH with 1% Igepal CA 630 or NP-40. Plates were incubated up to 14 days at room temperature in a humidified chamber to prevent evaporation.
(b) Preparation of Detection DNA.
For the detection probe, a gel-purified, digoxigenin-labeled, […] PCR fragment of the HSV UL-15 sequence was utilized. PCR conditions included 0.5 μM primers, 180 μM dTTP, 20 μM dUTP-digoxigenin (Boehringer Mannheim 1558706), 200 μM each of dATP, dCTP, and dGTP, 1×PCR Buffer II (Perkin Elmer), 2.5 mM MgCl2, 0.025 units/μL of AmpliTaq Gold polymerase (Perkin Elmer), and 5 ng of gel-purified HSV DNA per 100 μL Extension conditions were 10 min at 95° C., followed by 30 cycles of 95° C. for 1 min, 55° C. for 30 sec, and 72° C. for 2 min. The amplification was completed with a 10-min incubation at 72° C. Primers were selected to amplify a 728 bp probe spanning a section of the HSV1 UL15 open reading frame (nucleotides 249-977). Single-stranded transcripts were purified with Promega M13 Wizard kits. The final product was mixed 1:1 with a mixture of 6 M GuSCN, 100 mM EDTA and 200 μg/mL herring sperm DNA and stored at 4° C.
(c) Preparation of Capture Plates.
The capture DNA plasmid (HSV UL13 region in pUC) was linearized by cutting with Xba I, denatured for 15 min at 95° C. and diluted immediately into Reacti-Bind DNA Coating Solution (Pierce, 17250, diluted 1:1 with TE buffer, pH 8) at 1 ng/μL. 75 μL/well were added to Corning (#3922 or 9690) white 96-well plates and incubated at room temperature for at least 4 hrs before washing twice with 300 μL/well 0.2×SSC/0.05% Tween-20 (SSC/T buffer). The plates were then incubated overnight at room temperature with 150 μL/well 0.2 N NaOH, 1% IGEPAL and 10 μg/mL herring sperm DNA.
Twenty-seven (27) μL of cell lysate was combined with 45 μL of hybridization solution (final concentration: 3M GuSCN, 50 mM EDTA, 100 μg/ml salmon sperm DNA, 5×Denhardt's solution, 0.25×APE, and 5 ng of the digoxigenin-labeled detection probe). APE is 1.5 M NH4-acetate, 0.15 M NH4H2 phosphate, and 5 mM EDTA adjusted to pH 6.0. Mineral oil (50 μL) was added to prevent evaporation. The hybridization plates were incubated at 95° C. for 10 minutes to denature the DNA, then incubated at 42° C. overnight. The wells were washed 6× with 300 μL/well SSC/T buffer then incubated with 75 μL/well anti-digoxigenin-HRP-conjugated antibody (Boehringer Mannheim 1207733, 1:5000 in TE) for 30 min at room temperature. The wells were washed 6× with 300 μL/well with PBS/0.05% Tween-20 before 75 μL/well SuperSignal LBA substrate (Pierce) was added. The plates were incubated at room temperature for 30 minutes and chemiluminescence was measured in a Wallac Victor reader.
The following results were obtained for HSV-1.

| Structure (SMILES) | IC50 |
| --- | --- |
| CN1CCN(CCCNc2nccc(-c3c(-c4ccc(F)cc4)nn4cc(C(F)(F)F)ccc34)n2)CC1 [Example 32, N-{4-[2-(4-fluorophenyl)-6-(trifluoromethyl)pyrazolo-[1,5-a]pyridin-3-yl]pyrimidin-2-yl}-N-[3-(4-methylpiperazin-1-yl)propyl]amine] | 10000 nM |

same assay, conditions: Human alphaherpesvirus 1; HSV-1 in Vero 76 cells, MOI=0.001, 40-48 hours at 37° C.; read-out: IC50

| Structure (SMILES) | IC50 |
| --- | --- |
| OCc1ccc2c(-c3ccnc(NC4CCCC4)n3)c(-c3ccc(F)cc3)nn2c1 [Example 33, [3-[2-(Cyclopentylamino)-4-pyrimidinyl]-2-(4-fluorophenyl)pyrazolo-[1,5-a]pyridin-6-yl]methanol] | 2500 nM |
| CSc1cccc2c(-c3cc(NC4CCCC4)ncn3)c(-c3ccc(F)cc3)nn12 [Example 230, N-cyclopentyl-6-[2-(4-fluorophenyl)-7-(methylthio)pyrazolo[1,5-a]pyridin-3-yl]pyrimidin-4-amine] | 1300 nM |
| Cc1ccc2c(-c3ccnc(NC4CCCC4)n3)c(-c3ccc(F)cc3)nn2c1 [Example 34, N-Cyclopentyl-4-[2-(4-fluorophenyl)-6-methylpyrazolo[1,5-a]pyridin-3-yl]-2-pyrimidinamine] | 2000 nM |
| CN(C)C(=O)c1cccc2c(-c3ccnc(NC4CC4)n3)c(-c3ccc(F)cc3)nn12 [Example 88, Dimethyl 2-(4-fluorophenyl)-3-(4-(2-cyclopropylamino)pyrimidinyl)-7-pyrazolo[1,5-a]pyridinylcarboxamide] | 15000 nM |
| Fc1ccc(-c2nn3cc(C(F)(F)F)ccc3c2-c2ccnc(NC3CC3)n2)cc1 [Example 21, N-Cyclopropyl-4-[2-(4-fluorophenyl)-6-trifluoromethylpyrazolo[1,5-a]pyridin-3-yl]-2-pyrimidinamine] | 800 nM |
| Fc1ccc(-c2nn3c(OCC(F)(F)F)cccc3c2-c2ccnc(OCC(F)(F)F)n2)cc1 [Example 68, 2-(4-Fluorophenyl)-3-(4-(2-(2,2,2-trifluoroethoxy))pyrimidinyl)-7-(2,2,2-trifluoroethoxy)pyrazolo[1,5-a]pyridine] | 15000 nM |
| CCCCOc1cccc2c(-c3ccnc(NC4CCCC4)n3)c(-c3ccc(OC)cc3)nn12 [Example 228, 4-[7-Butoxy-2-(4-methoxyphenyl)pyrazolo[1,5-a]pyridin-3-yl]-N-cyclopentyl-2-pyrimidinamine] | 280 nM |
| CC(C)Sc1cc(N2CCOCC2)cc2c(-c3ccnc(NC4CCCC4)n3)c(-c3ccc(F)cc3)nn12 [Example 232, N-Cyclopentyl-4-[2-(4-fluorophenyl)-7-(isopropylthio)-5-morpholin-4-ylpyrazolo[1,5-a]pyridin-3-yl]pyrimidin-2-amine] | 900 nM |
| CCCCCCCCc1cccc2c(-c3ccnc(NCCCC)n3)c(-c3ccc(F)cc3)nn12 [Example 86, N-Butyl-4-[2-(4-fluorophenyl)-7-octylpyrazolo[1,5-a]pyridin-3-yl]-2-pyrimidinamine] | 6000 nM |
| CCCCNc1nccc(-c2c(-c3ccc(F)cc3)nn3c(OCCF)cccc23)n1 [Example 57, N-Butyl-4-[7-(2-fluoroethoxy)-2-(4-fluorophenyl)pyrazolo[1,5-a]pyridin-3-yl]-2-pyrimidinamine] | 2500 nM |
| Fc1ccc(-c2nn3cc(C(F)(F)F)ccc3c2-c2ccnc(NCc3ccccc3)n2)cc1 [Example 20, N-Benzyl-4-[2-(4-fluorophenyl)-6-trifluoromethylpyrazolo[1,5-a]pyridin-3-yl]-2-pyrimidinamine] | 16000 nM |
| Fc1ccc(-c2nn3ccccc3c2-c2ccnc(NCc3cccnc3)c2)cc1 [Example 7, 4-[2-(4-Fluorophenyl)pyrazolo[1,5-a]pyridin-3-yl]-N-(3-pyridinylmethyl)-2-pyridinamine] | 6200 nM |
| CCCCNc1nccc(-c2c(-c3ccc(F)cc3)nn3cc(C(F)(F)F)ccc23)n1 [Example 31, N-Butyl-4-[2-(4-fluorophenyl)-6-trifluoromethylpyrazolo-[1,5-a]pyridin-3-yl]-2-pyrimidinamine] | 1700 nM |
| Fc1ccc(-c2nn3cc(Cl)ccc3c2-c2ccc(NC3CC3)nc2)cc1 [Example 43, 5-[6-Chloro-2-(4-fluorophenyl)-pyrazolo[1,5-a]pyridin-3-yl]-N-cyclopropyl-2-pyridinamine] | 2400 nM |
| OCCCNc1cc(-c2c(-c3ccc(F)cc3)nn3ccccc23)c(Br)cn1 [Example 44, 3-({5-Bromo-4-[2-(4-fluorophenyl)-pyrazolo[1,5-a]pyridin-3-yl]-2-pyridinyl}amino)-1-propanol] | 6300 nM |

test system: not given; test: not given; details: not given

| Structure (SMILES) | melting point |
| --- | --- |
| CCOC(=O)c1ccc2c(-c3ccnc(NC4CCCC4)n3)c(-c3ccc(F)cc3)nn2c1C [Example 81, Ethyl 3-[2-(cyclopentylamino)-4-pyrimidinyl]-2-(4-fluorophenyl)-7-methylpyrazolo[1,5-a]pyridine-6-carboxylate] | 155 to 156 °C |
| OCc1ccc2c(-c3ccnc(NC4CCCC4)n3)c(-c3ccc(F)cc3)nn2c1 [Example 33, [3-[2-(Cyclopentylamino)-4-pyrimidinyl]-2-(4-fluorophenyl)pyrazolo-[1,5-a]pyridin-6-yl]methanol] | 155 to 156 °C |
